# Data published in patent US20170239289A1, “TREATMENT OF INFLAMMATION, RESPIRATORY TRACT INFECTIONS AND CYSTIC FIBROSIS” (Advanced Inhalation Therapies (AIT) Ltd., priority 2014, published 2017).
# “Also recorded” adds a separate entry of the source.
# Experiments:
# [1] = system: human subjects diagnosed with, or suffering from CF; experiment: Example 1: FEV1 in CF subjects treated with 160 ppm NO; format: in vivo
# Method: NO was administered via inhalation to nine clinically stable human subjects diagnosed with, or suffering from CF from two medical centers. Patients received three daily 30-minute treatments of 160 ppm NO with at least 3.5 hours between treatments, for 5 days per week over a two-weeks time period.
# Preliminary efficacy measures included determination of microbial density in sputum and measurements of forced exhaled volume at 1 second (FEV1). Inflammation associated with C-reactive protein (CRP) levels was assessed as a secondary outcome measure. Other inflammation biomarkers, such as interleukins, were also monitored (data not shown).
# [2] = system: human subjects diagnosed with acute bronchiolitis; experiment: Example 3: randomized bronchiolitis study, infants 2-12 months; 160 ppm NO 30 min 5x daily up to 5 days plus O2 vs O2 alone; safety and tolerability; format: in vivo
# Source text: Eligible subjects were randomized (1:1) to receive intermittent NO and standard treatment with O2 (hereafter referred to as NO treatment) or standard treatment with O2 (hereafter referred to as standard treatment) alone for a treatment period of up to 5 days. During treatment, MetHb and O2 saturation levels were continuously monitored using a dedicated monitor.
# In addition to standard supportive O2 treatment which was initiated prior to randomization, subjects in the NO group were given five 30 minute inhalations per day of 160 ppm NO, at intervals of 3 to 4 hours, until subject improvement led to a physician decision of fit to discharge, to a maximum of 25 inhalations over 5 consecutive days. Inhalations were administered via hospital face masks (Hospiltak, Unomedical Inc).
# All subjects in the control group were managed with standard supportive O2 treatment in the same way as the active treatment group, but without actual NO administration.
# Methemoglobin and O2 saturation levels were also continuously monitored using a dedicated monitor. In the event of MetHb>5% or O2 saturation less than 89%, treatment was temporarily discontinued, and measurement repeated 30 minutes later. If value(s) had returned to within the safety threshold, the next inhalation was started according to protocol. In any case of a second episode of MeHb greater than 5%, study treatment was to be permanently discontinued.
# Primary Endpoints—Safety and Tolerability: • Safety: • Determine the MetHb percentage associated with inhaled NO • Determine AEs associated with inhaled NO • Tolerability: • Proportion of subjects (%) who prematurely discontinued the study or study treatment for any reason • Proportion of subjects (%) who prematurely discontinued the study treatment due to AEs
# [3] = system: human subjects diagnosed with cystic fibrosis; experiment: Example 4: lung function indices by spirometry; format: in vivo
# Method: (§1) In addition to their standard care, subjects were administered three 30-minute inhalations per day of 160 ppm NO (with O2/air) for 10 working days (i.e., 5 days on treatment, 2 days off treatment, 5 days on treatment, for a total of 10 treatment days and 30 inhalations).
# (§2) Secondary Endpoints—Efficacy: • Comparison of FEV1 improvement before and after NO treatment Observational Endpoints: • To determine the reduction in bacterial and fungal sputum load during each week of NO treatment compared to bacterial sputum load before NO treatment • Assess the improvement of lung function indices during and after NO intermittent inhalation treatment as determined by spirometry (i.e., FVC, FEV1, FEV1/FVC, forced expiratory flow 25% to 75% (FEF 25-75)) • Evaluate C-reactive protein (CRP) levels over time • Number of subjects with study drug related bleeding at any time point
# The Signed rank test for two means was applied for analyzing changes from baseline in continuous parameters: • FEV1% • Specific bacterial colonization (i.e., S. aureus, P. aeruginosa)
# [4] = system: C-reactive protein (CRP); experiment: Example 4: CRP levels over time; format: in vivo, human; settings: three subjects with systemic inflammation (CRP greater than 5 mg/L) on Day 1
# Method: as §1, §2
# [5] = Follow-up 2 (2 weeks after Day 10), n=9
smiles,measurement,setting,value
"[N]=O [NO, nitric oxide]",FEV1 reduction,"[1]; one patient, returned to initial levels after 2 weeks",11%
same,changes in FEV1 values,[1]; two of 9 subjects,no significant changes
same,Time for MetHb to approach pre-treatment levels,[2]; after end of 30 min treatment,approximately 3 hours
same,"Completed entire treatment and study duration, % of subjects",[2]; all randomized,90.5%
same,Early discontinuation of study,[2]; all randomized,(0.0%)
same,"Early discontinuation of study, withdrawal of consent",[2]; all randomized,(0.0%)
same,Early discontinuation of treatment due to AE,[2]; all randomized,(4.8%)^(1)
same,Early discontinuation of treatment due to SAE,[2]; all randomized,(0.0%)
same,Early discontinuation of treatment only,[2]; all randomized,(9.5%)
same,"Early discontinuation of treatment, Physician/Investigator decision",[2]; all randomized,(4.8%)^(3)
same,Subjects that discontinued study treatment or discontinued the study,[2]; all randomized,(9.5%)
same,"Completed entire treatment and study duration, % of subjects","[2]; all randomized, listed as NO and Standard Treatment (O2)",(90.5%)
same,Subjects with any MetHb measurement greater than 5%,[2]; during the study treatment period,28.6%
same,Serious adverse events reported by,"[2]; human, in vivo, 160 ppm",4 subjects
same,Subjects reporting at least 1 AE,"[2]; human, in vivo, 160 ppm",47.6%
same,Deaths during the study,[2]; in vivo,no deaths
same,maximum MetHb,[2]; one subject (Subject 44),5.6%
same,Cumulative effect on MetHb levels,[2]; over the study treatment period,no “cumulative” effect; also recorded: no cumulative effect
same,"FEF 25-75% Absolute, Mean","[3]; Day 1, n=9",30.000%
same,"FEF 25-75% Absolute, Median","[3]; Day 1, n=9",27.000%
same,"FEF 25-75 Absolute, Mean","[3]; Day 1, n=9",1.151 L/s
same,"FEF 25-75 Absolute, Median","[3]; Day 1, n=9",1.090 L/s
same,"FEV1/FVC, Mean","[3]; Day 1, n=9",68.778%
same,"FEV1/FVC, Median","[3]; Day 1, n=9",69.000%
same,"FEV1 Absolute, Mean","[3]; Day 1, n=9",1.871 L
same,"FEV1 Absolute, Median","[3]; Day 1, n=9",1.700 L
same,"FEV1 Predicted, Mean","[3]; Day 1, n=9",62.222%
same,"FEV1 Predicted, Median","[3]; Day 1, n=9",64.000%
same,"FVC Absolute, Mean","[3]; Day 1, n=9",2.756 L
same,"FVC Absolute, Median","[3]; Day 1, n=9",2.360 L
same,"FVC Predicted, Mean","[3]; Day 1, n=9",79.889%
same,"FVC Predicted, Median","[3]; Day 1, n=9",90.000%
same,"FEF 25-75% Absolute, Mean","[3]; Day 10, n=9",28.111%
same,"FEF 25-75% Absolute, Median","[3]; Day 10, n=9",22.000%
same,"FEF 25-75 Absolute, Mean","[3]; Day 10, n=9",1.090 L/s
same,"FEF 25-75 Absolute, Median","[3]; Day 10, n=9",0.880 L/s
same,"FEV1/FVC, Mean","[3]; Day 10, n=9",65.111%
same,"FEV1/FVC, Median","[3]; Day 10, n=9",66.000%
same,"FEV1 Absolute, Mean","[3]; Day 10, n=9",1.833 L
same,"FEV1 Absolute, Median","[3]; Day 10, n=9",1.610 L
same,"FEV1 Predicted, Mean","[3]; Day 10, n=9",60.444%
same,"FEV1 Predicted, Median","[3]; Day 10, n=9",59.000%
same,"FVC Absolute, Mean","[3]; Day 10, n=9",2.759 L
same,"FVC Absolute, Median","[3]; Day 10, n=9",2.340 L
same,"FVC Predicted, Mean","[3]; Day 10, n=9",79.556%
same,"FVC Predicted, Median","[3]; Day 10, n=9",84.000%
same,"FEF 25-75% Absolute, Mean",[3]; [5],29.667%
same,"FEF 25-75% Absolute, Median",[3]; [5],23.000%
same,"FEF 25-75 Absolute, Mean",[3]; [5],1.118 L/s
same,"FEF 25-75 Absolute, Median",[3]; [5],0.910 L/s
same,"FEV1/FVC, Mean",[3]; [5],66.000%
same,"FEV1/FVC, Median",[3]; [5],65.000%
same,"FEV1 Absolute, Mean",[3]; [5],1.852 L
same,"FEV1 Absolute, Median",[3]; [5],1.630 L
same,"FEV1 Predicted, Mean",[3]; [5],62.889%
same,"FEV1 Predicted, Median",[3]; [5],60.000%
same,"FVC Absolute, Mean",[3]; [5],2.786 L
same,"FVC Absolute, Median",[3]; [5],2.390 L
same,"FVC Predicted, Mean",[3]; [5],81.889%
same,"FVC Predicted, Median",[3]; [5],85.000%
same,mean (SD) FEV1 change,"[3]; from Day 1 to Day 10, N=9, p=0.992",−0.11%
same,Lung function indices over time,[3]; throughout the study,no clinically significant changes
same,CRP levels from Day 1 to Day 10,[4],decreased
